The assay concerns A431 cells. Kind of assay: 2D tumor cell model cytotoxicity, Cell Counting Kit-8 (CCK-8). It counts as cell-based, human. The following applies: treated 96 h, CCK-8 viability, mean±SEM (n=3).

Where a SMILES comes first, the peptide text is derived from it. [ ]: non-standard residue; d: D form. Dolaproine = CO[C@@H]([C@@H]1CCCN1)[C@@H](C)C(=O)O; Dil = CC[C@H](C)[C@H](NC)[C@@H](CC(=O)O)OC; NMeV = CN[C@H](C(=O)O)C(C)C

Procedure: 2D tumor cell model was used, where ADCs of varying concentrations were added to a 96-well plate seeded with A431 cells and treated for 96 h. The cell viability was examined using Cell Counting Kit-8 (CCK-8).

The term EC50 denotes the concentration needed to bring the measured effect to its halfway point. Low readings indicate higher potency in that assay, high ones lower potency in that assay. On to `CC[C@H](C)[C@@H]([C@@H](CC(=O)N1CCC[C@H]1[C@H](OC)[C@@H](C)C(=O)N[C@@H](Cc1ccccc1)C(=O)O)OC)N(C)C(=O)[C@@H](NC(=O)[C@@H](NC)C(C)C)C(C)C` [MMAF, monomethylaurethatin F] (H-[NMeV]V[Dil][Dolaproine]F-OH), for which the EC50 is 955 ± 289 nM.

Values taken from US20230066474A1, “LYSOSOME-TARGETING ANTIBODY-DRUG CONJUGATE AND USE THEREOF” (Sun Yat-Sen University, priority 2019, published 2023).
